# Assay results as given in patent US10576085B2, “Substituted aminopurine compounds, compositions thereof, and methods of treatment therewith” (Signal Pharmaceuticals, LLC, priority 2016, dated 2020).
# Columns and labels:
# [1] = tested on: cancer cell lines of Table 2; experiment: Multiplexed cytotoxicity assay: cell proliferation (relative cell count IC50, GI50); type: cell-based
# Description: Cells are grown in RPMI1640, 10% FBS, 2 mM L-alanyl-L-Glutamine, 1 mM Na pyruvate or a special medium in a humidified atmosphere of 5% CO2 at 37° C. Cells are seeded into 384-well plates and incubated in a humidified atmosphere of 5% CO2 at 37° C. Compounds are added 24 h post cell seeding. At the same time, a time zero untreated cell plate is generated. After a 72 hour incubation period, cells are fixed and stained with fluorescently labeled antibodies and nuclear dye to allow visualization of nuclei, apoptotic cells and mitotic cells. Apoptotic cells are detected using an anti-active caspase-3 antibody. Mitotic cells are detected using an anti phospho-histone-3 antibody. Compounds are serially diluted 3.16-fold and assayed over 10 concentrations in a final assay concentration of 0.1% DMSO from the highest test concentration of 10 μM. Automated fluorescence microscopy was carried out using a Molecular Devices ImageXpress Micro XL high-content imager, and images are collected with a 4× objective.
# (§1) Sixteen-bit TIFF images are acquired and analyzed with MetaXpress 5.1.0.41 software. Cell proliferation is measured by the signal intensity of the incorporated nuclear dye. The cell proliferation assay output is referred to as the relative cell count. To determine the cell proliferation end point, the cell proliferation data output is transformed to percentage of control (POC) using the following formula: POC=relative cell count(compound wells)/relative cell count(vehicle wells)×100
# (§2) GI50 is the concentration needed to reduce the observed growth by half. This is the concentration that inhibits the growth to the level midway between growth in untreated cells and the number of cells seeded in the well (Time zero value). The IC50 values are calculated using nonlinear regression to fit data to a sigmoidal 4 point, 4 parameter One-Site dose response model, where: y(fit)=A+[(B−A)/(1+((C/x)^D))].
# In Another Experiment, Cells were Grown in RPMI1640, 10% FBS, 2 mM L-alanyl-L-Glutamine, 1 mM Na pyruvate or a special medium in a humidified atmosphere of 5% CO2 at 37° C. Cells were seeded into 384-well plates and incubated in a humidified atmosphere of 5% CO2 at 37° C. Compounds were added 24 h post cell seeding. At the same time, a time zero untreated cell plate was generated. After a 72 hour incubation period, cells were fixed and stained with fluorescently labeled antibodies and nuclear dye to allow visualization of nuclei, apoptotic cells and mitotic cells. Apoptotic cells were detected using an anti-active caspase-3 antibody. Mitotic cells were detected using an anti phospho-histone-3 antibody. Compounds were serially diluted 3.16-fold and assayed over 10 concentrations in a final assay concentration of 0.1% DMSO from the highest test concentration of 10 μM. Automated fluorescence microscopy was carried out using a Molecular Devices ImageXpress Micro XL high-content imager, and images were collected with a 4× objective.
# as §1, with “images were” for “images are”, “proliferation was” for “proliferation is”, “output was” for “output is”
# as §2, with “GI50 refers to” for “GI50 is”, “This corresponds to” for “This is”, “values were” for “values are”
# SIK = experiment: Known kinases inhibited (no method given); type: biochemical
# [2] = Homo sapiens, A204, A204, Soft Tissue, Sarcoma
# [3] = Homo sapiens, A704, A704, Kidney
# [4] = Homo sapiens, ARH-77, ARH77, Myeloma
# [5] = Homo sapiens, BT-474, BT474, Breast
# [6] = Homo sapiens, BT-549, BT549, Breast
# [7] = Homo sapiens, C-4-II, C4II, Female GU, Cervix
# [8] = Homo sapiens, CCF-STTG1, CCFSTTG1, CNS, Glioma
# [9] = Homo sapiens, CFPAC-1, CFPAC1, Pancreas
# [10] = Homo sapiens, ChaGo-K-1, CHAGOK1, Lung, NSCLC
# [11] = Homo sapiens, K562, K562, Leukemia
# [12] = Homo sapiens, ME-180, ME180, Female GU, Ovary
# [13] = Homo sapiens, NALM-6, NALM6, Leukemia
# [14] = Homo sapiens, NCI-H295R, NCIH295R, Endocrine, Adrenal gland
# [15] = Homo sapiens, NCI-H460, NCIH460, Lung, NSCLC
# [16] = Homo sapiens, OVCAR-3, OVCAR3, Female GU, Ovary
# [17] = Homo sapiens, SK-NEP-1, SKNEP1, Kidney
# [18] = Homo sapiens, SK-UT-1, SKUT1, Soft Tissue, Sarcoma
# [19] = Homo sapiens, SNU-16, SNU16, Stomach
# [20] = Homo sapiens, SiHa, Female GU, Cervix
# [21] = Homo sapiens, T98G, CNS, Glioma
# [22] = KHOS-240S, KHOS240S, Soft Tissue, Osteosarcoma
smiles,measurement,setting,value
"C[C@]1(C(N)=O)CC[C@@H](n2c(Nc3c(Cl)cc(Cl)cc3Cl)nc3cnc(N[C@@H]4CCOC[C@H]4F)nc32)CC1 [Compound 1, cis-4-[2-{[(3S,4R)-3-fluorooxan-4-yl]amino}-8-(2,4,6-trichloroanilino)-9H-purin-9-yl]-1-methyl cyclohexane-1-carboxamide]",GI50,"[1]; BC1, Lymphoma",10 µM
same,IC50,"[1]; BC1, Lymphoma",10 µM
same,GI50,"[1]; C4I, Female GU, Cervix",10 µM
same,IC50,"[1]; C4I, Female GU, Cervix",10 µM
same,GI50,"[1]; CEM/C1, CEMC1, Leukemia",10 µM
same,IC50,"[1]; CEM/C1, CEMC1, Leukemia",10 µM
same,IC50,"[1]; CML-T1, CMLT1, Leukemia",10 µM
same,IC50,"[1]; DB, Lymphoma",10 µM
same,IC50,"[1]; HS229T, Lung, NSCLC",10 µM
same,IC50,"[1]; HS688AT, Skin, Melanoma",10 µM
same,IC50,"[1]; HS729, Soft Tissue, Sarcoma",10 µM
same,IC50,"[1]; HS821T, Soft Tissue, Sarcoma",10 µM
same,IC50,"[1]; HS888SK, Soft Tissue, Osteosarcoma",10 µM
same,GI50,"[1]; HS895T, Skin, Melanoma",10 µM
same,IC50,"[1]; HS895T, Skin, Melanoma",10 µM
same,IC50,"[1]; HS934T, Skin, Melanoma",10 µM
same,IC50,"[1]; HT, Lymphoma",10 µM
same,GI50,[1]; [2],10 µM
same,IC50,[1]; [2],10 µM
same,IC50,"[1]; Homo sapiens, A253, A253, Head and Neck",10 µM
same,GI50,[1]; [3],10 µM
same,IC50,[1]; [3],10 µM
same,GI50,[1]; [4],10 µM
same,IC50,[1]; [4],10 µM
same,IC50,"[1]; Homo sapiens, ASPC1, ASPC1, Pancreas",10 µM
same,IC50,"[1]; Homo sapiens, BT-20, BT20, Breast",10 µM
same,GI50,[1]; [5],10 µM
same,IC50,[1]; [5],10 µM
same,GI50,[1]; [6],10 µM
same,IC50,[1]; [6],10 µM
same,IC50,"[1]; Homo sapiens, BV-173, BV173, Leukemia",10 µM
same,GI50,[1]; [7],10 µM
same,IC50,[1]; [7],10 µM
same,IC50,"[1]; Homo sapiens, CAPAN-1, CAPAN1, Pancreas",10 µM
same,GI50,[1]; [8],10 µM
same,IC50,[1]; [8],10 µM
same,GI50,[1]; [9],10 µM
same,IC50,[1]; [9],10 µM
same,IC50,"[1]; Homo sapiens, COLO 320DM, COLO320DM, Colon",10 µM
same,IC50,"[1]; Homo sapiens, Ca-Ski, CASKI, Female GU, Ovary",10 µM
same,IC50,"[1]; Homo sapiens, Caov-3, CAOV3, Female GU, Ovary",10 µM
same,GI50,[1]; [10],10 µM
same,IC50,[1]; [10],10 µM
same,IC50,"[1]; Homo sapiens, DMS-53, DMS53, Lung, SCLC",10 µM
same,IC50,"[1]; Homo sapiens, Daudi, Lymphoma",10 µM
same,IC50,"[1]; Homo sapiens, Detroit 562, DETROIT562, Head and Neck",10 µM
same,IC50,"[1]; Homo sapiens, EFM-19, EFM19, Breast",10 µM
same,IC50,"[1]; Homo sapiens, HT1197, HT1197, Bladder",10 µM
same,GI50,[1]; [11],10 µM
same,IC50,[1]; [11],10 µM
same,IC50,"[1]; Homo sapiens, MDA-MB-415, MDAMB415, Breast",10 µM
same,IC50,"[1]; Homo sapiens, MDA-MB-436, MDAMB436, Breast",10 µM
same,GI50,[1]; [12],10 µM
same,IC50,[1]; [12],10 µM
same,GI50,[1]; [13],10 µM
same,IC50,[1]; [13],10 µM
same,IC50,"[1]; Homo sapiens, NCI-H69, NCIH69, Lung, SCLC",10 µM
same,GI50,[1]; [14],10 µM
same,IC50,[1]; [14],10 µM
same,IC50,"[1]; Homo sapiens, NCI-H446, NCIH446, Lung, SCLC",10 µM
same,GI50,[1]; [15],10 µM
same,IC50,[1]; [15],10 µM
same,IC50,"[1]; Homo sapiens, NCI-H596, NCIH596, Lung, NSCLC",10 µM
same,IC50,"[1]; Homo sapiens, OE19, OE19, Head and Neck, Esophageal",10 µM
same,GI50,[1]; [16],10 µM
same,IC50,[1]; [16],10 µM
same,IC50,"[1]; Homo sapiens, PFSK-1, PFSK1, CNS, Glioma",10 µM
same,IC50,"[1]; Homo sapiens, Raji, Lymphoma",10 µM
same,IC50,"[1]; Homo sapiens, SK-N-DZ, SKNDZ, CNS, Neuroblastoma",10 µM
same,GI50,[1]; [17],10 µM
same,IC50,[1]; [17],10 µM
same,IC50,"[1]; Homo sapiens, SK-OV-3, SKOV3, Female GU, Ovary",10 µM
same,GI50,[1]; [18],10 µM
same,IC50,[1]; [18],10 µM
same,GI50,[1]; [19],10 µM
same,IC50,[1]; [19],10 µM
same,GI50,[1]; [20],10 µM
same,IC50,[1]; [20],10 µM
same,GI50,"[1]; Homo sapiens, T47D, Breast",10 µM
same,IC50,"[1]; Homo sapiens, T47D, Breast",10 µM
same,GI50,[1]; [21],10 µM
same,IC50,[1]; [21],10 µM
same,IC50,"[1]; Homo sapiens, U138-MG, U138MG, CNS, Glioma",10 µM
same,IC50,"[1]; Homo sapiens, U-118-MG, U118MG, CNS, Glioma",10 µM
same,GI50,"[1]; J82, Bladder",10 µM
same,IC50,"[1]; J82, Bladder",10 µM
same,GI50,[1]; [22],10 µM
same,IC50,[1]; [22],10 µM
same,GI50,"[1]; KLE, Female GU, Uterus",10 µM
same,IC50,"[1]; KLE, Female GU, Uterus",10 µM
same,GI50,"[1]; KPL-1, KPL1, Breast",10 µM
same,IC50,"[1]; KPL-1, KPL1, Breast",10 µM
same,IC50,"[1]; SKPNDW, Stomach",10 µM
same,IC50,"[1]; TE125T, Soft Tissue, Sarcoma",10 µM
same,IC50,"[1]; TT, Endocrine, Thyroid",10 µM
same,GI50,"[1]; Y79, Eye-retinoblastoma",10 µM
same,IC50,"[1]; Y79, Eye-retinoblastoma",10 µM
same,Anti-proliferative activity,[1]; variety of cancer cell lines (Table 3),anti-proliferative activity
same,Kinase inhibition,SIK,inhibited
